Source: patent US20240336568A1, “SELECTIVE PHD1 INHIBITOR COMPOUNDS, COMPOSITIONS, AND METHODS OF USE” (Akebia Therapeutics, Inc., priority 2021, published 2024)

Test system: full-length human prolyl-4-hydroxylase domain (PHD) enzymes, PHD1 and PHD2
Experiment: TR-FRET assay, selectivity of compounds for PHD1 over PHD2 (ratio of Kis calculated from IC50s)
Assay type: biochemical
Details: ratio of Kis (PHD2 Ki/PHD1 Ki), Kis calculated from TR-FRET IC50s by Cheng Prussoff equation; 1 uM 2-OG
Source text: Time-resolved fluorescence resonance energy transfer (TR-FRET) assay was utilized to determine the enzymatic half maximal inhibitory concentration (IC50) value of PHD inhibitors against the full-length human prolyl-4-hydroxylase domain (PHD) enzymes, PHD1 and PHD2. The TR-FRET assay was developed based on the specific binding of hydroxylated HIF-la peptide with the complex formed by VHL, EloB and EloC (VBC), to generate a fluorescent signal. Terbium (Tb)-Donor (monoclonal antibody anti-6His-Tb-cryptate Gold) and D2-acceptor (streptavidin [SA]-D2) of TR-FRET are linked to the VBC complex and to HIF-1α peptide, respectively. The VBC complex binds specifically to the HIF-1α peptide when it is hydroxylated, allowing energy transfer from TR-FRET donor to acceptor (FIG. 1).
TR-FRET Reagents. Monoclonal antibody anti-6His-Tb-cryptate Gold (catalog #61HI2TLA) and streptavidin (SA)-D2 (catalog #610SADLA) were purchased from CisBio International (Bedford, MA, USA).
N-terminus biotinylated HIF-1α C35 synthetic peptide representing amino acids 547 to 581 and including the proline 564 PHD2 hydroxylation site was purchased from California Peptide Research (Salt Lake City, UT, USA).
VBC Complex. His-tagged recombinant VHL protein, EloB, EloC complex (His-VBC) was supplied by Axxam (Milan, Italy). Recombinant human VHL (National Center for Biotechnology Information [NCBI] accession number NP_00542.1) contained a His tag at the C-terminus of amino acids 55 to 213 and is referred to as VHL-His. VHL-His was co-expressed in E. coli with full-length human EloB (NCBI accession number Q15370.1) and full-length human EloC (NCBI accession number Q15369.1) and purified by affinity chromatography on a nickel-nitrilotriacetic acid (Ni-NTA) column as the His-VBC complex. Purity (˜80%) was assessed by sodium dodecyl sulfate polyacrylamide gel electrophoresis (SDS-PAGE).
PHD1. Recombinant human PHD1 protein (catalog #81064, Lot #24717001) was purchased from Active Motif (Carlsbad, CA, USA). PHD1 was expressed in a baculovirus expression system as the full-length protein (NCBI accession number NP_542770.2) with an N-terminal FLAG tag (molecular weight 44.9 kDa). Purity (>90%) was assessed by SDS-PAGE.
PHD2. The full-length human PHD2 enzyme was produced with a baculovirus infected insect cell (BIIC) expression system by Beryllium (Bedford, MA, USA). The PHD2 construct contained amino acids 1 to 426 of PHD2 (UniProt Knowledgebase[UniProtKB]/Swiss-Prot accession number Q9GZT9.1), and a His tag and a Tobacco Etch Virus (TEV) protease cleavage site at the N-terminus. The construct was expressed in Sf9 insect cells, purified by Ni-NTA column and digested with TEV protease to remove the His tag.
Compounds were preincubated with PHD enzyme in a 10 μL reaction volume in white 384-well Optiplate microplates (catalog #6007290, Perkin Elmer, Waltham, MA, USA). For this, 5 μL compound was serially diluted with dilution buffer (50 mM HEPES [4-(2-hydroxyethyl)-1-piperazineethanesulfonic acid] pH 7.5, 50 mM sodium chloride [NaCl], 0.01% Tween-20, 0.01% purified bovine serum albumin [BSA]) and mixed with 5 μL PHD enzyme mix prepared as a 4× concentrate in the dilution buffer containing PHD enzyme (60 nM PHD1, 20 nM PHD2, 140 nM PHD3), 40 μM ferrous ammonium sulfate (FAS), 4 mM sodium (Na) ascorbate. The plates were incubated for 30 minutes at room temperature without rotation.
Five microliters of the VBC/anti-6His-Tb-cryptate Gold mix prepared as a 4× concentrate in dilution buffer containing 20 nM His-VBC, 1.32 nM monoclonal antibody anti-6His-Tb-cryptate Gold was then added. This step was followed immediately by the addition of 5 μL of the HIF-1α C35 substrate mix prepared as a 4× concentrate in the dilution buffer containing 120 nM biotin-labeled HIF-1α C35, 132 nM SA-D2, 4 μM 2-oxoglutarate (2-OG) to reach a final reaction volume of 20 μL. […]

Row | Structure (SMILES) | Selectivity of PHD1 over PHD2 [fold]
1 | CC(C)(CC(=O)O)NC(=O)c1ncc(-c2cccc(Cl)c2)cc1O [compound 1, 3-(5-(3-chlorophenyl)-3-hydroxypicolinamido)-3-methylbutanoic acid] | ~14
2 | C[C@@H](CC(=O)O)NC(=O)c1ncc(-c2cccc(Cl)c2)cc1O [compound 2, (S)-3-(5-(3-chlorophenyl)-3-hydroxypicolinamido)butanoic acid] | ~16
3 | C[C@H](CC(=O)O)NC(=O)c1ncc(-c2cccc(Cl)c2)cc1O [compound 3, (R)-3-(5-(3-chlorophenyl)-3-hydroxypicolinamido)butanoic acid] | ~17
4 | CC(C)(CNC(=O)c1ncc(-c2cccc(Cl)c2)cc1O)C(=O)O [compound 4, 3-(5-(3-chlorophenyl)-3-hydroxypicolinamido)-2,2-dimethylpropanoic acid] | ~1187
5 | O=C(O)CCNC(=O)c1ncc(-c2cccc(Cl)c2)cc1O [compound 5, 3-(5-(3-chlorophenyl)-3-hydroxypicolinamido)propanoic acid] | ~12
6 | CC(C)(CNC(=O)c1ncc(-c2cnn(-c3ccccc3)c2)cc1O)C(=O)O [compound 6, 3-(3-Hydroxy-5-(1-phenyl-1H-pyrazol-4-yl)picolinamido)-2,2-dimethylpropanoic acid] | ~249
7 | CCCn1cc(-c2cnc(C(=O)NCC(C)(C)C(=O)O)c(O)c2)cn1 [compound 7, 3-(3-hydroxy-5-(1-propyl-1H-pyrazol-4-yl)picolinamido)-2,2-dimethylpropanoic acid] | ~503
8 | CC(C)(CNC(=O)c1ncc(-c2cccc(Oc3ccccc3)c2)cc1O)C(=O)O [compound 8, 3-(3-hydroxy-5-(3-phenoxyphenyl)picolinamido)-2,2-dimethylpropanoic acid] | ~219
9 | CC(C)(CNC(=O)c1ncc(-c2cccc(-c3ccccc3)c2)cc1O)C(=O)O [compound 9, 3-(5-([1,1′-biphenyl]-3-yl)-3-hydroxypicolinamido)-2,2-dimethylpropanoic acid] | ~189
10 | CC(C)(CNC(=O)c1ncc(-c2cccc(CN3CCCC3)c2)cc1O)C(=O)O [compound 10, 3-(3-hydroxy-5-(3-(pyrrolidin-1-ylmethyl)phenyl)picolinamido)-2,2-dimethylpropanoic acid] | ~95
11 | CC(C)(CNC(=O)c1ncc(-c2cccc(COc3cccc(Cl)c3)c2)cc1O)C(=O)O [compound 11, 3-(5-(3-((3-chlorophenoxy)methyl)phenyl)-3-hydroxypicolinamido)-2,2-dimethylpropanoic acid] | ~50
12 | CC(C)(CNC(=O)c1ncc(-c2cccc(OCC3CC3)c2)cc1O)C(=O)O [compound 12, 3-(5-(3-(cyclopropylmethoxy)phenyl)-3-hydroxypicolinamido)-2,2-dimethylpropanoic acid] | ~1984
13 | COCCc1ccc(OCc2cccc(-c3cnc(C(=O)NCC(C)(C)C(=O)O)c(O)c3)c2)cc1 [compound 13, 3-(3-hydroxy-5-(3-((4-(2-methoxyethyl)phenoxy)methyl)phenyl)picolinamido)-2,2-dimethylpropanoic acid] | ~6
14 | Cc1ncc(-c2cnc(C(=O)NCC(C)(C)C(=O)O)c(O)c2)s1 [compound 14, 3-(3-hydroxy-5-(2-methylthiazol-5-yl)picolinamido)-2,2-dimethylpropanoic acid] | ~15
15 | CC(C)(CNC(=O)c1ncc(-c2cccc(-c3cccnc3)c2)cc1O)C(=O)O [compound 15, 3-(3-hydroxy-5-(3-(pyridin-3-yl)phenyl)picolinamido)-2,2-dimethylpropanoic acid] | ~125
16 | CC(C)(CNC(=O)c1ncc(-c2cccc(COc3ccc(OC(F)(F)F)cc3)c2)cc1O)C(=O)O [compound 16, 3-(3-hydroxy-5-(3-((4-(trifluoromethoxy)phenoxy)methyl)phenyl)picolinamido)-2,2-dimethylpropanoic acid] | ~53
